Test results taken from patent US11248024B2, “Noxa-derived, cell death-inducing peptide eMTD” (INDUSTRY-ACADEMIC COOPERATION FOUNDATION, CHOSUN UNIVERSITY, priority 2019, dated 2022).
Ends that are not written are not given here.

Tests used:
[1] = test system: MDA-MB-231 cells; test: Atomic force microscopy of pores formed on the cell membrane; type: cell-based
Protocol: In this regard, MDA-MB-231 cells were treated with eMTDΔ4 (SEQ ID NO: 2) and pores formed on the cell membrane were observed using an atomic force microscope.

[2] = test system: HeLa cells; test: Microscopic observation of morphological change in cells; type: cell-based, human; conditions: 20 μM, 3 min
Protocol: In order to observe morphological changes in cells in detail, the cells were incubated with 20 μM of the peptide eMTDΔ4 (SEQ ID NO: 2) and observed with the aid of a microscope (Leica). The results are depicted in FIG. 2.

Question: For KLNFRQKLLNLISKLF [eMTDΔ4], which “Counts of membrane pores” value ([1]; Length 0.675~0.975, t = 30 sec) is on record?
Answer: Its value is 38.03.

Question: What about the “Counts of membrane pores” value ([1]; Length 0.675~0.975, t = 2 min) of the same sequence?
Answer: Its value is 20.63.

Question: What about the “Counts of membrane pores” value ([1]; Length 0.675~0.975, t = 5 min) of the same sequence?
Answer: Its value is 14.81.

Question: And the “Counts of membrane pores” value ([1]; Length 0.675~0.975, t = 40 min)?
Answer: Its value is 2.5.

Question: What about the “Counts of membrane pores” value ([1]; Length 1.025~1.325, t = 30 sec) of the same sequence?
Answer: Its value is 43.66.

Question: And the “Counts of membrane pores” value ([1]; Length 1.025~1.325, t = 2 min)?
Answer: The value was 38.1.

Question: What about the “Counts of membrane pores” value ([1]; Length 1.025~1.325, t = 5 min) of the same sequence?
Answer: Its value is 39.51.

Question: What about the “Counts of membrane pores” value ([1]; Length 1.025~1.325, t = 40 min) of the same sequence?
Answer: The value was 22.5.

Question: What about the “Counts of membrane pores” value ([1]; Length 1.375~1.675, t = 30 sec) of the same sequence?
Answer: The value was 9.859.

Question: What about the “Counts of membrane pores” value ([1]; Length 1.375~1.675, t = 2 min) of the same sequence?
Answer: The value was 20.63.

Question: And the “Counts of membrane pores” value ([1]; Length 1.375~1.675, t = 5 min)?
Answer: The value was 20.99.

Question: And the “Counts of membrane pores” value ([1]; Length 1.375~1.675, t = 40 min)?
Answer: Its value is 22.5.

Question: What about the “Counts of membrane pores” value ([1]; Length 1.725~2.025, t = 30 sec) of the same sequence?
Answer: Its value is 4.225.

Question: What about the “Counts of membrane pores” value ([1]; Length 1.725~2.025, t = 2 min) of the same sequence?
Answer: The value was 14.29.

Question: What about the “Counts of membrane pores” value ([1]; Length 1.725~2.025, t = 5 min) of the same sequence?
Answer: The value was 13.58.

Question: What about the “Counts of membrane pores” value ([1]; Length 1.725~2.025, t = 40 min) of the same sequence?
Answer: The value was 22.5.

Question: And the “Counts of membrane pores” value ([1]; Length 2.075~2.725, t = 30 sec)?
Answer: The value was 2.817.

Question: And the “Counts of membrane pores” value ([1]; Length 2.075~2.725, t = 2 min)?
Answer: The value was 6.349.

Question: What about the “Counts of membrane pores” value ([1]; Length 2.075~2.725, t = 5 min) of the same sequence?
Answer: Its value is 9.877.

Question: What about the “Counts of membrane pores” value ([1]; Length 2.075~2.725, t = 40 min) of the same sequence?
Answer: Its value is 22.5.

Question: What about the “Counts of membrane pores” value ([1]; Length 2.775<, t = 30 sec) of the same sequence?
Answer: Its value is 0.

Question: And the “Counts of membrane pores” value ([1]; Length 2.775<, t = 2 min)?
Answer: The value was 0.

Question: What about the “Counts of membrane pores” value ([1]; Length 2.775<, t = 5 min) of the same sequence?
Answer: The value was 1.235.

Question: And the “Counts of membrane pores” value ([1]; Length 2.775<, t = 40 min)?
Answer: The value was 7.5.

Question: What about the “Counts of membrane pores” value ([1]; Length >0.625, t = 30 sec) of the same sequence?
Answer: The value was 1.408.

Question: And the “Counts of membrane pores” value ([1]; Length >0.625, t = 2 min)?
Answer: The value was 0.

Question: What about the “Counts of membrane pores” value ([1]; Length >0.625, t = 5 min) of the same sequence?
Answer: Its value is 0.

Question: What about the “Counts of membrane pores” value ([1]; Length >0.625, t = 40 min) of the same sequence?
Answer: Its value is 0.

Question: And the “pore formation on cell membrane (in words)” value ([1]; MDA-MB-231, FIG. 10d and Table 7)?
Answer: The value was “larger pores were formed with time”.

Question: And the “morphological change in cells” value [2]?
Answer: Its value is “most of the cells were observed to undergo necrosis with the consequent rupture of cell membranes after 3 min”.
